Reference: ChEMBL document CHEMBL4043168, “The design and SAR of a novel series of 2-aminopyridine based LRRK2 inhibitors” (Bioorg Med Chem Lett, 2017)

Key:
[1] = biological target: Tyrosine-protein kinase CSK (Homo sapiens) (UniProt P41240); assay: Inhibition of CSK labeling at conserved Lys2 (VSDFGLTKEASSTQDTGKLPVK) in human PBMC at 0.1 uM
[2] = biological target: Mitogen-activated protein kinase kinase kinase 3 (Homo sapiens) (UniProt Q99759); assay: Inhibition of MAP3K3 conserved Lys2 (DIKGANILR) in human PBMC at 0.1 uM
[3] = biological target: Serine/threonine-protein kinase Nek8 (Homo sapiens) (UniProt Q86SG6); assay: Inhibition of NEK8 conserved Lys2 (DLKTQNILLDK) in human PBMC at 1 uM
[4] = biological target: Mitogen-activated protein kinase kinase kinase 15 (Homo sapiens) (UniProt Q6ZN16); assay: Inhibition of MAP3K15 conserved Lys1 (IAIKEIPER) in human PBMC at 0.1 uM
[5] = biological target: Serine/threonine-protein kinase Nek1 (Homo sapiens) (UniProt Q96PY6); assay: Inhibition of NEK1 conserved Lys2 (DIKSQNIFLTK) in human PBMC at 0.1 uM
[6] = biological target: Serine/threonine-protein kinase LATS2 (Homo sapiens) (UniProt Q9NRM7); assay: Inhibition of LATS2 conserved Lys2 (DIKPDNILIDLDGHIK) in human PBMC at 0.1 uM
[7] = biological target: T1, Mitogen-activated protein kinase kinase kinase 5 (Homo sapiens) (UniProt Q99683); assay: Inhibition of MAP3K5 conserved Lys1 (IAIKEIPER) in human PBMC at 0.1 uM
T1 sequence (whole entry): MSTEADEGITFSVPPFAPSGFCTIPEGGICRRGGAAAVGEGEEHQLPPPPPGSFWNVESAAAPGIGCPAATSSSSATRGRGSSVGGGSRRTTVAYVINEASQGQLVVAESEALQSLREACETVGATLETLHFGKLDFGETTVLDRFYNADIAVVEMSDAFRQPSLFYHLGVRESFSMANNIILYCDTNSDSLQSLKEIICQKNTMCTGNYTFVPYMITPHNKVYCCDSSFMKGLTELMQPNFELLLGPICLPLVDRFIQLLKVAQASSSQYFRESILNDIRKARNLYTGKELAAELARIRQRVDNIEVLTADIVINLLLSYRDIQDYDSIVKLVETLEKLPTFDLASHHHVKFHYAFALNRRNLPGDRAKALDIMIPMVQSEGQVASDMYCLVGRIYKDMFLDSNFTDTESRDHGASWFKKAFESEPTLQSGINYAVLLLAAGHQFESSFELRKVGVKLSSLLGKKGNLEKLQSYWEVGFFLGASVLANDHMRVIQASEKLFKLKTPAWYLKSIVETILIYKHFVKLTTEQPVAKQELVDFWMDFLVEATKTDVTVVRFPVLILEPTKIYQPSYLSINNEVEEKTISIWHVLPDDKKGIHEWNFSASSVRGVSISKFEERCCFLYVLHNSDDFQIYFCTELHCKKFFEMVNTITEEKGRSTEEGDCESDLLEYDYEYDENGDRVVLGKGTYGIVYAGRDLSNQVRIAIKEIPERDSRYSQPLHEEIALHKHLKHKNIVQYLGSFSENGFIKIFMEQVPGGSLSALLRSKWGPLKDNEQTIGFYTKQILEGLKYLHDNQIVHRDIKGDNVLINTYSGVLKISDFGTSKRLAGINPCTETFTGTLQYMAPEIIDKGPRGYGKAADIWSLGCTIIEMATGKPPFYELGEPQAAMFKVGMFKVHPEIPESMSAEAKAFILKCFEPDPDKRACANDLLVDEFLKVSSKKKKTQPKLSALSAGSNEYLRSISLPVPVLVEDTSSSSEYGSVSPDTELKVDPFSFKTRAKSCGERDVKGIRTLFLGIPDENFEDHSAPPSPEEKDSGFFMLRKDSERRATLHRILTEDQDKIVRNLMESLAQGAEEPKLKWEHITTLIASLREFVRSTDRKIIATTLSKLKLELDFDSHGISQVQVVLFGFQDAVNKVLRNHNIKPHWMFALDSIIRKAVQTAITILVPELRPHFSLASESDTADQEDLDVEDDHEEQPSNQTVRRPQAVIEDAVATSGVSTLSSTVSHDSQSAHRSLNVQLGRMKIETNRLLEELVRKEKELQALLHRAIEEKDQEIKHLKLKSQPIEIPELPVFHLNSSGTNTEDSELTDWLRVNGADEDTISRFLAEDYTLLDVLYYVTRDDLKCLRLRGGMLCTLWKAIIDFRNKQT

[8] = biological target: T2, Tyrosine-protein kinase JAK3 (Homo sapiens) (UniProt P52333); assay: Inhibition of JAK3 domain2 activation Loop (IADFGLAKLLPLDKDYYVVR) in human PBMC at 1 uM
T2 sequence (whole entry): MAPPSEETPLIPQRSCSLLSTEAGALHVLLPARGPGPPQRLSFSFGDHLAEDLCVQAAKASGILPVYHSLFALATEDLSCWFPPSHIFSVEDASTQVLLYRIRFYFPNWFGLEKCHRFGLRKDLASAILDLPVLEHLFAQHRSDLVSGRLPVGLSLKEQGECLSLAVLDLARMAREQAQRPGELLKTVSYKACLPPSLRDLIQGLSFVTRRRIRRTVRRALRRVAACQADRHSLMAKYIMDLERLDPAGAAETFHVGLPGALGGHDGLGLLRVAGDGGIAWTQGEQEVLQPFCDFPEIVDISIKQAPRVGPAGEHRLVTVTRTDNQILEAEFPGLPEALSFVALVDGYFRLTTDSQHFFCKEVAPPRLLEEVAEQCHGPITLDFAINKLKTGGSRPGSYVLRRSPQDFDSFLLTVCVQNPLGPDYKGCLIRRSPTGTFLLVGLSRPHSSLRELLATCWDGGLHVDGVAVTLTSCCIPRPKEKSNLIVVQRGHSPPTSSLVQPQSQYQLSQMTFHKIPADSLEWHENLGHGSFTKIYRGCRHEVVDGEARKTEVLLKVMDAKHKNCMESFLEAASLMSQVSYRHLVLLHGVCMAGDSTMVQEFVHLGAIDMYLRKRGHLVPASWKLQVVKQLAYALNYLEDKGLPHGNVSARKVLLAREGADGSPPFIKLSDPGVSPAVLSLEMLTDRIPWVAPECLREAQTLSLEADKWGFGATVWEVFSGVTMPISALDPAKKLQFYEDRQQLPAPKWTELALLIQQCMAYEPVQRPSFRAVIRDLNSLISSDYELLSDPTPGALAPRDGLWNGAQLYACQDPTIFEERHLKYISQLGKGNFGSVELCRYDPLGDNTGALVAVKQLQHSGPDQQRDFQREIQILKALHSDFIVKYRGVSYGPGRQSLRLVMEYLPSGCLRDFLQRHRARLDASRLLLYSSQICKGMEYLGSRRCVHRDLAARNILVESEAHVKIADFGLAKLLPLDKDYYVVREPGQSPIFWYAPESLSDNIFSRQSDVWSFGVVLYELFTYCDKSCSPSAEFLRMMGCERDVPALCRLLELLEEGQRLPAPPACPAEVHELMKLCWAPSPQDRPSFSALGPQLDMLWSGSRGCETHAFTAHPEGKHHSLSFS

Sequence of Mitogen-activated protein kinase kinase kinase 15 (Homo sapiens) (Q6ZN16 whole entry): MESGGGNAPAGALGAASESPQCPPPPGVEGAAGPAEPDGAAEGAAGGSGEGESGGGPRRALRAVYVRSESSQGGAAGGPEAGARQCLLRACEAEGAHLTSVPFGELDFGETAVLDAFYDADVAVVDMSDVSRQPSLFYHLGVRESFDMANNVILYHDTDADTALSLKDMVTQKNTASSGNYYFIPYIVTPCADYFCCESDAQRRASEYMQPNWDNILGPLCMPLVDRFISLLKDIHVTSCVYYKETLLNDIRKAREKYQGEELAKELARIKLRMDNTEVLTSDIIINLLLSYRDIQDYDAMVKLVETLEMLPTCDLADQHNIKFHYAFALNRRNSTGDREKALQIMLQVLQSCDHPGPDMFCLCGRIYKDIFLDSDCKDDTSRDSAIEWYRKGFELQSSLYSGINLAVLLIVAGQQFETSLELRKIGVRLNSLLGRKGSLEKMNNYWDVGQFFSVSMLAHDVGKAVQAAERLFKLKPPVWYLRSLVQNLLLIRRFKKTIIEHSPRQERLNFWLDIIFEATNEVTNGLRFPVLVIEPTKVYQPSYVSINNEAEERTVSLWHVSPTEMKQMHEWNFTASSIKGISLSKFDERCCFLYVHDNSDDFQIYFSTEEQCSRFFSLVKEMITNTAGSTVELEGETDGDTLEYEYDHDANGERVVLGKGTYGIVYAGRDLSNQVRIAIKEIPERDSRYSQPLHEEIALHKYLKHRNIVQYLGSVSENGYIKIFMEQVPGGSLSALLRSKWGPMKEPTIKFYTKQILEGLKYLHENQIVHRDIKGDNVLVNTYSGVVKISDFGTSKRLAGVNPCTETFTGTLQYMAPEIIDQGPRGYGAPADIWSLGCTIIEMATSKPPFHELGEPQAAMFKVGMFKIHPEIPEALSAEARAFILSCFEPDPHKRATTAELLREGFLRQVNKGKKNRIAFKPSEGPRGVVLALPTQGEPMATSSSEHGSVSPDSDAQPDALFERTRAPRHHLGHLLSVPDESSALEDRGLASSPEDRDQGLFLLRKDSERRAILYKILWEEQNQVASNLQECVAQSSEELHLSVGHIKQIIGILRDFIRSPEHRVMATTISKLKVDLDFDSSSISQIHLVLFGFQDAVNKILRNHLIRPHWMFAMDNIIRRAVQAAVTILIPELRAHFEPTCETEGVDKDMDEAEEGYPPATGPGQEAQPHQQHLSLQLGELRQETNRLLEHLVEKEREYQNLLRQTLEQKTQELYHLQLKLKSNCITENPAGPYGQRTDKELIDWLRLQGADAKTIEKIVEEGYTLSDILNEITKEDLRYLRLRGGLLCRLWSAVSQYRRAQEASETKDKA
Sequence of Tyrosine-protein kinase CSK (Homo sapiens) (P41240 2-450 limits assumed): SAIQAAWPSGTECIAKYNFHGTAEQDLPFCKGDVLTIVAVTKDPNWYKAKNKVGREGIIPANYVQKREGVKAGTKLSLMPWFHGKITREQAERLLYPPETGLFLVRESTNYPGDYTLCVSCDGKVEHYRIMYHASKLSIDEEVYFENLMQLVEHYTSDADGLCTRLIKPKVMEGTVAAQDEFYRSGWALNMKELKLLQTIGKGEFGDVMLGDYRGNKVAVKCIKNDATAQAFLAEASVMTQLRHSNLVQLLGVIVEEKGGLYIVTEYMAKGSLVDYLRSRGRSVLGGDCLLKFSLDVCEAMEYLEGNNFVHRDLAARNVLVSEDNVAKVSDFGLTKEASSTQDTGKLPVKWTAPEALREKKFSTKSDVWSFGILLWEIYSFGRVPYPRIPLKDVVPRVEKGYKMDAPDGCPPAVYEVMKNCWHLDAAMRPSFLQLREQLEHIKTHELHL
Sequence of Serine/threonine-protein kinase LATS2 (Homo sapiens) (Q9NRM7 whole entry): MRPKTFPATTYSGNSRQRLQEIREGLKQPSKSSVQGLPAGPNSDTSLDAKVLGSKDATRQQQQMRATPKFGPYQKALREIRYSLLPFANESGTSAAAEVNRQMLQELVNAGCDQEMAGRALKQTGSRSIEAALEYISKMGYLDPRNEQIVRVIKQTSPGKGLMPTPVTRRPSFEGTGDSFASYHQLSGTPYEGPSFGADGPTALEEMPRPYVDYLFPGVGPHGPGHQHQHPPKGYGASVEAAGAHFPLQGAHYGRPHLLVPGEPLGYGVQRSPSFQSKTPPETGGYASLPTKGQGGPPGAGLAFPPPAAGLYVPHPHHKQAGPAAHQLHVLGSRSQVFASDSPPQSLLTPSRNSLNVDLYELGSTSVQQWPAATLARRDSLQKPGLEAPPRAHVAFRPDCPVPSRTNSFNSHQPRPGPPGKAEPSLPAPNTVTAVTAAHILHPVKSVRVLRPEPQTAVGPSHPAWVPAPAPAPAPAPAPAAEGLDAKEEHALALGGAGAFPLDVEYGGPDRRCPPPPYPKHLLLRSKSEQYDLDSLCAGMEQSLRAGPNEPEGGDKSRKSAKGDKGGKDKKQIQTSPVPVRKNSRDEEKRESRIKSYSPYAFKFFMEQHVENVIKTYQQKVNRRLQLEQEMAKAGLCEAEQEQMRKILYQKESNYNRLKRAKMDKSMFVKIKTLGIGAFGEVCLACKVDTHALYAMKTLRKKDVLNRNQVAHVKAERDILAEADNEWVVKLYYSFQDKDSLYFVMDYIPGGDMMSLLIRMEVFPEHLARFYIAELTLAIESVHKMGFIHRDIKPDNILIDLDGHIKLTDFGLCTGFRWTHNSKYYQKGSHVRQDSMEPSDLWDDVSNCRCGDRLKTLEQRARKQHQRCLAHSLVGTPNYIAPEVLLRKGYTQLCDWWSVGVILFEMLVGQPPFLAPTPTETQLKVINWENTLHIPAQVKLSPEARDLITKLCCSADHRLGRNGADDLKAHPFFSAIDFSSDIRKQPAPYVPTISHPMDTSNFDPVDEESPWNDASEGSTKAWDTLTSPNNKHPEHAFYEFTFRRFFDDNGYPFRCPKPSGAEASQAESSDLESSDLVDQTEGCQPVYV
Sequence of Mitogen-activated protein kinase kinase kinase 3 (Homo sapiens) (Q99759 whole entry): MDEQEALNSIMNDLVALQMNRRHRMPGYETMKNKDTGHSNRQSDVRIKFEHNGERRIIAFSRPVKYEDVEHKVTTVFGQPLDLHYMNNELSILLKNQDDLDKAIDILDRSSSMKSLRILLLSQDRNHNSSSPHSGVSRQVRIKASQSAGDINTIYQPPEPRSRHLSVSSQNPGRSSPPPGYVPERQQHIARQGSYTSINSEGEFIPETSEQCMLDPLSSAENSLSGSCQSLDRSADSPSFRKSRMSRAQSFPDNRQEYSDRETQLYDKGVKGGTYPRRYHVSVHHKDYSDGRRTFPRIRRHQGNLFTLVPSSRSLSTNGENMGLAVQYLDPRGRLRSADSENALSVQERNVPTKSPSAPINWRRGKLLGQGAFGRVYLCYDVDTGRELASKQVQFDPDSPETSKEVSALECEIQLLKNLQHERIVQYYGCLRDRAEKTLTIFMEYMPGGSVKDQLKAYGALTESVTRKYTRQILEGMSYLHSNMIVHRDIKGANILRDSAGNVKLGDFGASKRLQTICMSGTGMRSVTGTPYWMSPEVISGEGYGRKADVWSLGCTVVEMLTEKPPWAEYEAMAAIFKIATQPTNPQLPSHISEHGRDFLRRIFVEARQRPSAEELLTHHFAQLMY
Sequence of Serine/threonine-protein kinase Nek1 (Homo sapiens) (Q96PY6 whole entry): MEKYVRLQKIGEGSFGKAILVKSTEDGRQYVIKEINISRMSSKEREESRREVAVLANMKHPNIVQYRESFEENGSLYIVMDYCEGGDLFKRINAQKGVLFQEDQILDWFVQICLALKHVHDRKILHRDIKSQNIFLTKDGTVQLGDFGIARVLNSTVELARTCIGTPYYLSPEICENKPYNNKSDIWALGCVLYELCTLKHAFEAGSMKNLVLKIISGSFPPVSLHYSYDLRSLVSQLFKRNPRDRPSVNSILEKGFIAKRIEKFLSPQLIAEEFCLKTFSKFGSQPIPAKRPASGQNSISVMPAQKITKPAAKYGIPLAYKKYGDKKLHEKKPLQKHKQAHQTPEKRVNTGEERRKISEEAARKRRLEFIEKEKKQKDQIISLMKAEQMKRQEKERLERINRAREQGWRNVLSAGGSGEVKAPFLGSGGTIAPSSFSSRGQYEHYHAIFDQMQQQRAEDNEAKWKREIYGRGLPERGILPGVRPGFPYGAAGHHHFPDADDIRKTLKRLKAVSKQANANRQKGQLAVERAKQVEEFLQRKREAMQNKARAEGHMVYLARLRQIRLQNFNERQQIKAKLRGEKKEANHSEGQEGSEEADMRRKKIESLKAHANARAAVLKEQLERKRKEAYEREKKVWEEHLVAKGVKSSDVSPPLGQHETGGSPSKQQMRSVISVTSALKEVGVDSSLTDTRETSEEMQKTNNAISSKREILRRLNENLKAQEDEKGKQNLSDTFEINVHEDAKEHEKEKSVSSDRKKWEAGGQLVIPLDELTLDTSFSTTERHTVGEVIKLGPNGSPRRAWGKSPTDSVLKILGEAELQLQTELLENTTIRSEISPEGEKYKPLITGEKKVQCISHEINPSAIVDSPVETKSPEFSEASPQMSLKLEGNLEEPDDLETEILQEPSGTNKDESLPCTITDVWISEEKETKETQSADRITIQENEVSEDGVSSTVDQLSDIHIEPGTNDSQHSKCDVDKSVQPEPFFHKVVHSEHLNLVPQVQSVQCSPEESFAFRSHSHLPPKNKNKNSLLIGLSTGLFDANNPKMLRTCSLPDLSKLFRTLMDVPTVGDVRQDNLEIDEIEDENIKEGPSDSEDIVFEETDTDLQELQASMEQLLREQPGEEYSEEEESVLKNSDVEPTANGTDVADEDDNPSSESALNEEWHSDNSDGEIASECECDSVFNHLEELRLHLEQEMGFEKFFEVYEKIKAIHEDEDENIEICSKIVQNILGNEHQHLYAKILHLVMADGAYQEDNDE

**Q.** For `CC(C)n1cc(-c2cc(-c3ccc(CN4CCOCC4)cc3)cnc2N)nn1`, which inhibition [1] is on record?
**A.** -9.6%

**Q.** And the inhibition [2]?
**A.** 23.2%

**Q.** What about the inhibition [3] of the same molecule?
**A.** 17.1%

**Q.** And the inhibition [4]?
**A.** -0.5%

**Q.** And the inhibition [5]?
**A.** 5.5%

**Q.** What about the inhibition [6] of the same molecule?
**A.** 3%

**Q.** What about the inhibition [7] of the same molecule?
**A.** -0.5%

**Q.** What about the inhibition [8] of the same molecule?
**A.** 7.8%
